In patent US20230133958A1, “COMPOUNDS USEFUL IN MODULATING EGFR AND PI3K” (Mekanistic Therapeutics LLC, priority 2021, published 2023):

Assay: Metabolic stability in mouse liver microsomes
Assay type: in vitro ADME
Conditions: Mouse Liver Microsome (MLM)
Method: Working solution: 5 µL of compound and control stock solution (10 mM in dimethyl sulfoxide (DMSO)) were diluted with 495 µL of acetonitrile (ACN) (intermediate solution concentration: 100 µM, 99% ACN)
NADPH Cofactor Preparation: NADPH powder: β-Nicotinamide adenine dinucleotide phosphate reduced form, tetrasodium salt; NADPH 4 Na. The appropriate amount of NADPH powder was weighed and diluted into a 10 mM MgCl2 solution (working solution concentration: 10 unit/mL; final concentration in reaction system: 1 unit/mL)
Liver Microsomes Preparation: The appropriate concentrations of microsome working solutions were prepared in 100 mM potassium phosphate buffer. Cold (4° C.) acetonitrile (ACN) containing 200 ng/mL tolbutamide and 200 ng/mL labetalol as internal standards (IS) was used as the stop solution
Assay Procedure: Pre-warm empty ‘Incubation’ plates T60 and NCF60 for 10 minutes. Dilute liver microsomes to 0.56 mg/mL in 100 mM phosphate buffer. Transfer 445 µL microsome working solutions (0.56 mg/mL) into pre-warmed ‘Incubation’ plates T60 and NCF60, Then pre-incubate ‘Incubation’ plates T60 and NCF60 for 10 min at 37° C. with constant shaking. […]
The biological stability of the compounds of the invention can be measured by determining its ½ life in the presence microsomes. […]

Q: With `CS(=O)(=O)Nc1cc(-c2ccc3ncnc(Nc4cccc(Cl)c4F)c3c2)cnc1Cl` [Compound 6, N-[2-chloro-5-[4-(3-chloro-2-fluoro-anilino)quinazolin-6-yl]-3-pyridyl] methanesulfonamide] as the compound, how does the half-life at 1 µM read?
A: 10 to 100 min
